According to ChEMBL document CHEMBL1201862, “PubChem BioAssay data set” (2004):
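Step 1: Grow cells in 96-well plates. Step 2: Expose to compound for 48 hours at 5 concentrations. Step 3: Interpolate endpoints linearly; if unreached, use highest concentration. GI50 is the concentration that inhibits growth by half.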 Active and inactive are the calls of the source. Rule as the data show it: active = GI50 up to about 1.1 µM and inactive = higher.

Tests used:
Assay in all cases: NCI tumour cell line growth inhibition, 48 h
A498 = test system: A498
ACHN = test system: ACHN
CCRF-CEM = test system: CCRF-CEM
EKVX = test system: EKVX
HCC 2998 = test system: HCC 2998
HCT-116 = test system: HCT-116
HL-60 = test system: HL-60
Hs-578T = test system: Hs-578T
K562 = test system: K562
LOX IMVI = test system: LOX IMVI
NCI-H460 = test system: NCI-H460
OVCAR-3 = test system: OVCAR-3
OVCAR-5 = test system: OVCAR-5
RPMI-8226 = test system: RPMI-8226
SF-268 = test system: SF-268
SNB-19 = test system: SNB-19
SNB-75 = test system: SNB-75
SR = test system: SR
KM-20L2 = test system: KM-20L2
TK-10 = test system: TK-10

Measured: GI50

C#C[C@]1(O)CC[C@H]2[C@@H]3CCc4cc(OC(=O)c5cccc6cc7ccccc7nc56)ccc4[C@H]3CC[C@@]21C
inactive: A498 > 100 µM | ACHN 49 µM | CCRF-CEM 12.8 µM | EKVX 12.9 µM | HCC 2998 29.4 µM | HCT-116 24.3 µM | HL-60 8.75 µM | Hs-578T 25.6 µM | K562 > 100 µM | LOX IMVI 20.5 µM | NCI-H460 23 µM | OVCAR-3 21.4 µM | OVCAR-5 43.8 µM | RPMI-8226 22 µM | SF-268 67.5 µM | SNB-19 50.7 µM | SNB-75 31.2 µM | SR 5.52 µM

Cn1c(N)c(-c2c3ccccc3nc3ccccc23)c(=O)n(C)c1=O
inactive: A498 > 100 µM | CCRF-CEM > 100 µM | EKVX > 100 µM | HCT-116 > 100 µM | HL-60 > 100 µM | K562 > 100 µM | KM-20L2 > 100 µM | OVCAR-3 > 100 µM | OVCAR-5 > 100 µM | RPMI-8226 > 100 µM | SF-268 > 100 µM | TK-10 > 100 µM

N=C(N)/N=C(\N)Nc1ccc(C(=O)O)cc1
inactive: A498 > 100 µM | ACHN > 100 µM | CCRF-CEM > 100 µM | EKVX > 100 µM | HCC 2998 > 100 µM | HCT-116 > 100 µM | HL-60 > 100 µM | Hs-578T > 100 µM | K562 > 100 µM | LOX IMVI > 100 µM | NCI-H460 > 100 µM | OVCAR-3 > 100 µM | OVCAR-5 > 100 µM | RPMI-8226 > 100 µM | SF-268 > 100 µM | SNB-19 > 100 µM | SNB-75 > 100 µM | SR > 100 µM | TK-10 > 100 µM

O=C1CSC(c2ccccc2)N1c1ccc(-n2c(-c3ccccc3)nc3ccccc3c2=O)cc1 (centres undefined)
inactive: A498 > 100 µM | ACHN 47.2 µM | CCRF-CEM 36.3 µM | EKVX > 75.7 µM | HCC 2998 > 100 µM | HCT-116 39.2 µM | HL-60 41.8 µM | Hs-578T > 83.8 µM | K562 33.1 µM | LOX IMVI 50.5 µM | NCI-H460 46.3 µM | OVCAR-3 64.1 µM | OVCAR-5 > 100 µM | RPMI-8226 42.6 µM | SF-268 96.8 µM | SNB-19 > 69.2 µM | SNB-75 > 100 µM | SR 26.9 µM | TK-10 > 100 µM

O=c1cc(CC(O)(C(F)(F)Cl)C(F)(F)Cl)[nH]n1-c1ccccc1
inactive: A498 > 100 µM | ACHN > 100 µM | CCRF-CEM > 100 µM | EKVX > 100 µM | HCC 2998 > 100 µM | HCT-116 > 100 µM | HL-60 > 100 µM | Hs-578T 15 µM | K562 92.3 µM | LOX IMVI > 100 µM | NCI-H460 > 100 µM | OVCAR-5 > 100 µM | RPMI-8226 > 100 µM | SF-268 > 100 µM | SNB-19 > 100 µM | SNB-75 > 100 µM | SR > 100 µM | TK-10 > 100 µM

O=C1CCc2cc([N+](=O)[O-])ccc2O1
inactive: A498 > 100 µM | ACHN > 100 µM | CCRF-CEM > 100 µM | EKVX > 100 µM | HCC 2998 > 100 µM | HCT-116 > 100 µM | HL-60 > 100 µM | Hs-578T > 100 µM | K562 > 100 µM | LOX IMVI > 100 µM | NCI-H460 > 100 µM | OVCAR-3 > 100 µM | OVCAR-5 > 100 µM | RPMI-8226 > 100 µM | SF-268 > 100 µM | SNB-19 > 100 µM | SNB-75 > 100 µM | SR > 100 µM | TK-10 > 100 µM

CC(C)=CC[C@]12CCN(C)[C@H]1N(S(=O)(=O)c1ccccc1)c1ccccc12
inactive: A498 > 100 µM | ACHN > 54.2 µM | CCRF-CEM > 50.7 µM | EKVX > 24.2 µM | HCC 2998 > 40.1 µM | HCT-116 > 44.6 µM | HL-60 28.4 µM | Hs-578T > 45.4 µM | K562 > 43.2 µM | LOX IMVI > 37.1 µM | NCI-H460 > 40.4 µM | OVCAR-3 > 41 µM | OVCAR-5 > 59.8 µM | RPMI-8226 29.9 µM | SF-268 > 44.6 µM | SNB-19 > 20.3 µM | SNB-75 17.3 µM | SR 20.7 µM | TK-10 > 55.5 µM

CCOC(=O)CCN1C(=O)c2ccc(NC(=O)C(=O)O)cc2S1(=O)=O
inactive: A498 > 100 µM | ACHN > 100 µM | CCRF-CEM > 100 µM | EKVX > 100 µM | HCC 2998 > 100 µM | HCT-116 > 100 µM | HL-60 > 100 µM | Hs-578T > 100 µM | K562 > 100 µM | LOX IMVI > 100 µM | NCI-H460 > 100 µM | OVCAR-3 > 100 µM | OVCAR-5 > 100 µM | RPMI-8226 > 100 µM | SNB-19 > 100 µM | SNB-75 > 100 µM | SR > 100 µM | TK-10 > 100 µM

Cc1sc2nc3n(c(=O)c2c1C)N=C(c1ccccc1)CS3
inactive: A498 > 100 µM | ACHN > 100 µM | CCRF-CEM > 100 µM | EKVX > 100 µM | HCC 2998 > 100 µM | HCT-116 > 100 µM | HL-60 > 100 µM | Hs-578T 37.5 µM | K562 > 100 µM | LOX IMVI > 100 µM | NCI-H460 > 100 µM | OVCAR-3 > 100 µM | OVCAR-5 > 100 µM | RPMI-8226 > 100 µM | SF-268 > 100 µM | SNB-75 > 100 µM | SR > 100 µM | TK-10 > 100 µM

O=[N+]([O-])c1ccc(C2ON=C(c3ccccc3)N2C23CC4CC(CC(C4)C2)C3)cc1 (centres undefined)
inactive: A498 > 10 µM | ACHN > 10 µM | CCRF-CEM > 10 µM | EKVX > 10 µM | HCC 2998 > 10 µM | HCT-116 > 10 µM | HL-60 > 10 µM | Hs-578T 6.75 µM | K562 > 10 µM | LOX IMVI > 10 µM | NCI-H460 > 10 µM | OVCAR-3 > 10 µM | OVCAR-5 > 10 µM | RPMI-8226 > 10 µM | SF-268 > 10 µM | SNB-19 > 10 µM | SNB-75 5.6 µM | SR > 10 µM | TK-10 > 10 µM

C[n+]1[n-]o/c(=N\N=O)c1-c1cc(-c2/c(=N/N=O)o[n-][n+]2C)cc(-c2/c(=N\N=O)o[n-][n+]2C)c1
inactive: A498 > 100 µM | ACHN > 100 µM | CCRF-CEM > 100 µM | EKVX > 100 µM | HCC 2998 > 100 µM | HCT-116 > 100 µM | HL-60 > 100 µM | Hs-578T > 100 µM | K562 > 100 µM | LOX IMVI > 100 µM | NCI-H460 > 100 µM | OVCAR-3 > 100 µM | OVCAR-5 > 100 µM | RPMI-8226 > 100 µM | SF-268 > 100 µM | SNB-19 > 100 µM | SNB-75 68.1 µM | SR > 100 µM | TK-10 > 100 µM

Cc1ccc(S(=O)(=O)n2cc(/C=C/C#N)c(/C=C/C#N)c2)cc1
inactive: A498 50.5 µM | ACHN 72.8 µM | CCRF-CEM 43.8 µM | EKVX 85.1 µM | HL-60 25.5 µM | K562 34 µM | KM-20L2 93.3 µM | LOX IMVI 56.6 µM | NCI-H460 > 100 µM | OVCAR-3 37.1 µM | OVCAR-5 > 100 µM | RPMI-8226 > 100 µM | SF-268 54 µM | SNB-19 57.9 µM | SNB-75 29.8 µM | TK-10 > 100 µM

CCCc1cc(=O)oc2c(C=O)c(O)cc(O)c12
inactive: A498 19.5 µM | ACHN 26.5 µM | CCRF-CEM 22.8 µM | EKVX 21.3 µM | HCC 2998 16.7 µM | HCT-116 21.8 µM | HL-60 18.3 µM | Hs-578T 22.6 µM | K562 57.4 µM | LOX IMVI 20 µM | NCI-H460 24.8 µM | OVCAR-3 18.7 µM | OVCAR-5 26.7 µM | RPMI-8226 28 µM | SF-268 26.6 µM | SNB-19 25.8 µM | SNB-75 11.3 µM | SR 27.8 µM | TK-10 > 100 µM

C#CCN(C)C(=O)N(CC#C)N=O
inactive: A498 > 100 µM | ACHN > 100 µM | CCRF-CEM > 100 µM | EKVX > 100 µM | HCT-116 > 100 µM | HL-60 > 100 µM | K562 > 100 µM | KM-20L2 > 100 µM | LOX IMVI > 100 µM | NCI-H460 > 100 µM | OVCAR-3 > 100 µM | OVCAR-5 29.5 µM | RPMI-8226 > 100 µM | SF-268 > 100 µM | SNB-19 > 100 µM | SNB-75 > 100 µM | TK-10 > 100 µM

Clc1cccc(Cl)c1C1SCc2nc3ncccc3n21 (centres undefined)
inactive: A498 > 100 µM | ACHN > 100 µM | CCRF-CEM 92.3 µM | EKVX > 100 µM | HCC 2998 > 100 µM | HCT-116 94.6 µM | HL-60 60.7 µM | Hs-578T > 100 µM | K562 49.5 µM | LOX IMVI > 100 µM | NCI-H460 > 100 µM | OVCAR-3 44.1 µM | OVCAR-5 > 100 µM | RPMI-8226 80.4 µM | SF-268 > 100 µM | SNB-19 > 100 µM | SNB-75 40.6 µM | SR > 100 µM | TK-10 > 100 µM
